The values that follow come from patent US20260001875A1, “AMINOPYRIMIDINYL DERIVATIVES FOR THE TREATMENT OF PARKINSON'S DISEASE” (UNIVERSITY OF DUNDEE, priority 2022, published 2026).

What is called DC50 is the concentration giving 50% degradation. Usually Dmax stands for the greatest extent of degradation seen. Usually EC50 stands for the concentration giving half of the maximal effect.

One assay deals with T1, LRRK2^WT (Mus musculus, UniProt Q5S006).
T1 construct: endogenous in cells; host or cells: primary wild-type mouse embryonic fibroblasts (MEFs)
T1 sequence (Q5S006 whole entry): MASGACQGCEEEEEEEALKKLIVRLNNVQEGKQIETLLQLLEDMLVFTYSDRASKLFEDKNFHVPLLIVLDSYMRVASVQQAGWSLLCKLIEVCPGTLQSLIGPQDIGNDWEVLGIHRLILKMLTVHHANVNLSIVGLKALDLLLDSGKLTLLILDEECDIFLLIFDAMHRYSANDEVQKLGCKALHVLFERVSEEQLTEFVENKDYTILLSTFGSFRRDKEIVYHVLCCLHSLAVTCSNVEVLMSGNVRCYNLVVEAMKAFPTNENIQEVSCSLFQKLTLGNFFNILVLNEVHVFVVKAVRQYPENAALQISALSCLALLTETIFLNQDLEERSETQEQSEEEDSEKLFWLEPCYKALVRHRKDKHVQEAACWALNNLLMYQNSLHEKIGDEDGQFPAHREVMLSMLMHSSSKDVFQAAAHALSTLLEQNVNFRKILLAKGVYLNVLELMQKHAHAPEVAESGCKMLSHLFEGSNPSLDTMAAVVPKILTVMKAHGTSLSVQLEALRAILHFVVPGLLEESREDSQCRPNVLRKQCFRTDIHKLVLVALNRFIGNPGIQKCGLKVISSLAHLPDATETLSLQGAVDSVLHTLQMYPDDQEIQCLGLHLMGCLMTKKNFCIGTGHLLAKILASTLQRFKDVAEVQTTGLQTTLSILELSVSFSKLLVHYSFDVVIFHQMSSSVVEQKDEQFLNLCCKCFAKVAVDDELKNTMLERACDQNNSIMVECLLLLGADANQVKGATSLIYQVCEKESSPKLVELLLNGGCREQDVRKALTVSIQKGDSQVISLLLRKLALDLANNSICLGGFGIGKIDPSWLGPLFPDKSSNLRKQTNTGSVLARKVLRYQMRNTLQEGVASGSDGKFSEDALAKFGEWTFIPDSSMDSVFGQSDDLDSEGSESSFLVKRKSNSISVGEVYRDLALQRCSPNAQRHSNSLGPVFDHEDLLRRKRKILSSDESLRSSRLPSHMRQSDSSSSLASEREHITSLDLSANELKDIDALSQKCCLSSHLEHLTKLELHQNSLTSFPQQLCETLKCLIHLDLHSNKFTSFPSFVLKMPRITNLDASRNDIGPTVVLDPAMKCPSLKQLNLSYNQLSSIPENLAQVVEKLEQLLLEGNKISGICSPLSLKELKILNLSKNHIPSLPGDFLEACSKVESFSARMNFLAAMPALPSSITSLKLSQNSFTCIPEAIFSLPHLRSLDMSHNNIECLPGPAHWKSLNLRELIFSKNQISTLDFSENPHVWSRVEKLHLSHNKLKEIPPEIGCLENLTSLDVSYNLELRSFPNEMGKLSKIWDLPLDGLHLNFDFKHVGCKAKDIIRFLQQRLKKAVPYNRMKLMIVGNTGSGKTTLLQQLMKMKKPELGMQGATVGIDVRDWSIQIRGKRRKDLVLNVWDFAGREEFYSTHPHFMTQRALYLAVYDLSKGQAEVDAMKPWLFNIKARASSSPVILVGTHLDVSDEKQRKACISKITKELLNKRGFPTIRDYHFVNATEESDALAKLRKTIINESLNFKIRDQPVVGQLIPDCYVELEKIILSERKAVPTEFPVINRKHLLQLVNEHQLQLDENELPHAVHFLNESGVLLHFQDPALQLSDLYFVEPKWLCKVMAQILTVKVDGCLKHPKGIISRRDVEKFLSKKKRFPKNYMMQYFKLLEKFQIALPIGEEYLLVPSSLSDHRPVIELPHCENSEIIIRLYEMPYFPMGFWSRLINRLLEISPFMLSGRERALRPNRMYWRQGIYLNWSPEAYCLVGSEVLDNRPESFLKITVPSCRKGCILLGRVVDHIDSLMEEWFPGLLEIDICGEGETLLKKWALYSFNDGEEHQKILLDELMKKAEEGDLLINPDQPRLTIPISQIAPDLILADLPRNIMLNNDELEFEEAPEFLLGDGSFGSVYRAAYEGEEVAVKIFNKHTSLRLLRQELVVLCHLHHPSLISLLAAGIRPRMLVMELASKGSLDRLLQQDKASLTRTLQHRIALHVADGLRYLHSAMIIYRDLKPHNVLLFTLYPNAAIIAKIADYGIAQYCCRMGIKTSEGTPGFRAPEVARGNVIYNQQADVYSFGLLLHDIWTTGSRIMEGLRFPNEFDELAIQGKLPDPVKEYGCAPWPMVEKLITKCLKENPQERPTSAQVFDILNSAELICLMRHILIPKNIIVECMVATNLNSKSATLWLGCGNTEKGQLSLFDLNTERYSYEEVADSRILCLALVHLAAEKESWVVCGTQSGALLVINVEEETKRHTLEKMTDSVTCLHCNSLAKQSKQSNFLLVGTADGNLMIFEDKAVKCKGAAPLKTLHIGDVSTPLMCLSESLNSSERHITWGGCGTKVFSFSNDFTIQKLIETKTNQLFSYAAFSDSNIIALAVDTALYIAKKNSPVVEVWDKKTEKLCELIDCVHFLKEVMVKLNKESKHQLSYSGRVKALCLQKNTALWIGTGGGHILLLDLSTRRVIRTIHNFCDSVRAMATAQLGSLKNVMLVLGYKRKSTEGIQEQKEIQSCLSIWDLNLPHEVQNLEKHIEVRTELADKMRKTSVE
Briefly: Western blot LRRK2 degradation in WT MEFs. The format is cell-based. The following applies: dose response, 4 h treatment; for Dmax: read-out: Dmax on WT MEFs. As to the method:
Western blot degradation assays for the LRRK2 protacs were performed with WT and PD-associated LRRK2 [G2019S] mouse embryonic fibroblasts (MEFs). The second-generation PROTACs were tested in parallel with the first generation PROTACs SD75, SD82, and SD100. The compounds were tested at 33 nM or […] concentrations for 4 hours or 24 hours, running two biological replicates per condition and achieving quantifications representative of both replicates. Analysis by quantitative immunoblotting was performed with readouts of the total LRRK2 (antibody recognizes epitope in C-terminus of protein), Rab10 pThr73 (physiological substrate) and LRRK2 pSer935 (biomarker phosphorylation site).
(§1) Primary MEFs were generated as described in a previous study (Wiggin et al., Mol. Cell Biol. 2002 April; 22(8):2871-81.). Briefly, the uterine horn was collected from adult female mice at day E12.5 and transferred to a 10 cm tissue culture dish containing cold PBS. Two forceps were used to tear the yolk sacs to isolate each embryo. Forceps were cleaned thoroughly with 70% ethanol between each embryo isolation. The embryos were culled, and a tissue piece was collected in a PCR tube for genotyping. The red tissue of the embryo, which grows to become the heart and liver, was removed. The remainder of the embryo was minced with a scalpel blade and incubated with 7.5 ml trypsin-EDTA solution for 10 minutes in a 37° C. tissue culture CO2 incubator. The dish was removed from the incubator and checked under a light microscope for single cells. 7.5 ml complete media was added to the trypsinised cells, and the cell suspension was transferred to a 15 ml Falcon tube, centrifuged at 1200 rpm for 5 minutes at room temperature. The trypsin was aspirated, the cell pellet was resuspended in 5 ml fresh complete media, and the cell suspension was plated in a 60 mm tissue culture dish and incubated in a 37° C., 5% CO2 tissue culture incubator. The MEFs at this stage were considered as passage 0 and were passaged and expanded for experimental use once the genotype was confirmed by allelic sequencing and immunoblotting. MEFs were cultured in Dulbecco's modified Eagle medium (DMEM) containing 10% (v/v) fetal bovine serum (FBS), 2 mM L-glutamine, 100 U/ml penicillin, and 100 μg/ml streptomycin supplemented with 1× non-essential amino acids and 1 mM sodium pyruvate.
Culturing and passaging of adherent cell lines were carried out using aseptic technique in CL1 or CL2 (for PBMC isolation) biological safety cabinets. All cells were incubated in a 37° C. incubator with 5% CO2. Cell lines were regularly tested for mycoplasma contamination. For western blot assay, the cells were seeded in 6-well plates. After treating with testing compounds at indicated concentrations and time period, the media was removed and the cells were washed with PBS and lysed in 100 μl ice-cold complete lysis buffer containing 50 mM Tris-HCl pH 7.4, 1 mM EGTA, 10 mM 2-glycerophosphate, 50 mM sodium fluoride, 5 mM sodium pyrophosphate, 270 mM sucrose, supplemented with 1 μg/ml microcystin-LR, 1 mM sodium orthovanadate, complete EDTA-free protease inhibitor cocktail (Roche) and 1% (v/v) Triton X-100. The cells were immediately placed on ice and were scraped and collected into 1.5 ml Eppendorf tubes. Cell lysates were incubated on ice for 10 minutes prior to centrifugation at 15,000 g at 4° C. for 15 minutes. The cell pellet was discarded, and supernatant was collected for analysis by quantitative immunoblotting. For long term storage, the supernatant was flash frozen and stored at −80° C. Protein concentrations of cell lysates were determined using the Bradford assay.
Cell lysates containing a quarter of a volume of 4× NuPAGE LDS sample buffer (NP0007) supplemented with 5% β-mercaptoethanol, were heated at 95° C. for 5 minutes. […]

For assay [1], the system named is Rab10 pThr73. Briefly: Rab10 Thr73 dephosphorylation (immunoblot) in LRRK2^G2019S MEFs. The format is cell-based. The following applies: Mus musculus, read-out: pRab10 inhibited in LRRK2^G2019S MEFs.
In a further assay the target is T2, LRRK2^G2019S (Mus musculus, UniProt Q5S006, G2019S).
T2 construct: endogenous in cells; host or cells: LRRK2[G2019S] mouse embryonic fibroblasts (MEFs)
T2 sequence (Q5S006 whole entry G2019S): as the sequence (Q5S006 whole entry) above, with G2019S counted along it
Briefly: Western blot LRRK2 degradation in LRRK2^G2019S MEFs. Type of assay: cell-based. The following applies: dose response, 4 h treatment; for Dmax: read-out: Dmax on G2019S MEFs. The procedure: The second-generation PROTACs were tested in parallel with the first generation PROTACs SD75, SD82, and SD100. The compounds were tested at 33 nM or […] concentrations for 4 hours or 24 hours, running two biological replicates per condition and achieving quantifications representative of both replicates. Analysis by quantitative immunoblotting was performed with readouts of the total LRRK2 (antibody recognizes epitope in C-terminus of protein), Rab10 pThr73 (physiological substrate) and LRRK2 pSer935 (biomarker phosphorylation site).
as §1
Culturing and passaging of adherent cell lines were carried out using aseptic technique in CL1 or CL2 (for PBMC isolation) biological safety cabinets. All cells were incubated in a 37° C. incubator with 5% CO2. Cell lines were regularly tested for mycoplasma contamination. For western blot assay, the cells were seeded in 6-well plates. […] The cells were immediately placed on ice and were scraped and collected into 1.5 ml Eppendorf tubes. Cell lysates were incubated on ice for 10 minutes prior to centrifugation at 15,000 g at 4° C. for 15 minutes. The cell pellet was discarded, and supernatant was collected for analysis by quantitative immunoblotting. For long term storage, the supernatant was flash frozen and stored at −80° C. Protein concentrations of cell lysates were determined using the Bradford assay.
Cell lysates containing a quarter of a volume of 4× NuPAGE LDS sample buffer (NP0007) supplemented with 5% β-mercaptoethanol, were heated at 95° C. for 5 minutes. 15 to 20 μg of samples were loaded onto pre-cast 4-12% Bis-Tris midi 20W or 26W gels (Thermofisher Scientific®, Cat #WG1402BOX or WG1403BOX) and resolved at 130 V for 2 hours with NuPAGE MOPS SDS running buffer (Thermofisher Scientific® Cat #NP0001-02). Proteins were electrophoretically transferred onto a 0.45 μm nitrocellulose membrane (GE Healthcare, Amersham Protran® Supported 0.45 mm NC) at 90 V for 90 min on ice in transfer buffer (48 mM Tris base and 39 mM glycine supplemented with 20% methanol). The transferred membrane was blocked with 5% (w/v) skim milk powder dissolved in tris-buffered saline with tween (TBS-T) (50 mM Tris base, 150 mM sodium chloride (NaCl), 0.1% (v/v) Tween-20) at room temperature for 1 hour.
(In general: In western blotting, separated proteins are transferred to a membrane and probed.)

For assay [2], the system named is Rab10 pThr73. Description: Rab10 Thr73 dephosphorylation (immunoblot) in LRRK2^G2019S MEFs. The format is cell-based, mouse. The conditions noted are these: Mus musculus; for inhibition at 1 µM: read-out: pRab10 inhibited in LRRK2^G2019S MEFs; for EC50: dose response, 4 h treatment, read-out: G2019S MEFs-pRab10-dephosphorylation EC50.
In assay [3] the test system is Rab10 pThr73. Description: Rab10 Thr73 dephosphorylation (immunoblot) in WT MEFs. The conditions noted are these: Mus musculus; for inhibition at 0.033 µM / inhibition at 1 µM: read-out: pRab10 inhibited in WT MEFs; for EC50: dose response, 4 h treatment, read-out: WT MEFs pRab10-dephosphrylation EC50. Type of assay: cell-based, mouse. The method in brief:
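Wild-type mouse embryonic fibroblasts in 6-well plates were treated with LRRK2 PROTACs, with two biological replicates per condition. Cells were washed in PBS and lysed on ice in buffer containing phosphatase and protease inhibitors plus 1% Triton X-100, then clarified at 15,000 g. Rab10 Thr73 phosphorylation was measured by quantitative immunoblotting of 15 to 20 μg protein on 4-12% Bis-Tris gels.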

With `CNc1nc(Nc2ccc(C(=O)N3CCN(C[C@H]4CC[C@H](CSC(C)(C)[C@H](NC(=O)C5(F)CC5)C(=O)N5C[C@H](O)CC5C(=O)N[C@@H](C)c5ccc(-c6scnc6C)cc5)CC4)CC3)cc2OC)ncc1Cl` (stereo partly drawn) [XL02049, (2S,4R)-1-((R)-3-((((1R,4R)-4-((4-(4-((5-chloro-4-(methylamino)pyrimidin-2-yl)amino)-3-methoxybenzoyl)piperazin-1-yl)methyl)cyclohexyl)methyl)thio)-2-(1-fluorocyclopropane-1-carboxamido)-3-methylbutanoyl)-4-hydroxy-N—((S)-1-(4-(4-methylthiazol-5-yl)phenyl)ethyl)pyrrolidine-2-carboxamide], the DC50 on LRRK2^WT came out at 40 nM; at LRRK2^G2019S it was 27 nM. Besides, the figures for the greatest degradation seen (Dmax) at LRRK2^WT and at LRRK2^G2019S were 76.5% and 90%, respectively. For the same compound, the inhibition at 0.033 µM in the assay on Rab10 pThr73 [1] (33 nM/4 h treatment) was in the range of 0 to 90%; with Rab10 pThr73 [1] (33 nM/24 h treatment), 30 to 90%; in the assay on Rab10 pThr73 [3] (33 nM/4 h treatment), 0 to 70%; with Rab10 pThr73 [3] (33 nM/24 h treatment), 0 to 80%. Also, the inhibition at 1 µM in the assay on Rab10 pThr73 [2] (1 μM/4 h treatment) was 10 to 100%; in the assay on Rab10 pThr73 [2] (1 μM/24 h treatment), 80 to 100%; with Rab10 pThr73 [3] (1 μM/4 h treatment) it was 80 to 100%; in the assay on Rab10 pThr73 [3] (1 μM/24 h treatment), 80 to 100%. Further, the results for the EC50 in the assay on Rab10 pThr73 [2] and in the assay with Rab10 pThr73 [3] were 31 nM and 65 nM, respectively.
As for `CNc1nc(Nc2ccc(C(=O)N3CCN(C[C@H]4CC[C@@H](CSC(C)(C)[C@H](NC(=O)C5(F)CC5)C(=O)N5C[C@H](O)CC5C(=O)NCc5ccc(-c6scnc6C)cc5C)CC4)CC3)cc2OC)ncc1Cl` (stereo partly drawn) [XL02059, (2S,4R)-1-((R)-3-((((1s,4S)-4-((4-(4-((5-chloro-4-(methylamino)pyrimidin-2-yl)amino)-3-methoxybenzoyl)piperazin-1-yl)methyl)cyclohexyl)methyl)thio)-2-(1-fluorocyclopropane-1-carboxamido)-3-methylbutanoyl)-4-hydroxy-N-(2-methyl-4-(4-methylthiazol-5-yl)benzyl)pyrrolidine-2-carboxamide], the Dmax stood at 77.5% at LRRK2^WT and 76% at LRRK2^G2019S. The inhibition at 0.033 µM with Rab10 pThr73 [1] (33 nM/4 h treatment) lay within 0 to 90%; in the assay on Rab10 pThr73 [1] (33 nM/24 h treatment), 30 to 90%; in the assay with Rab10 pThr73 [3] (33 nM/4 h treatment) it was 0 to 70%; in the assay on Rab10 pThr73 [3] (33 nM/24 h treatment), 0 to 80%. For the same compound, the inhibition at 1 µM in the assay with Rab10 pThr73 [2] (1 μM/4 h treatment) lay within 10 to 100%; in the assay on Rab10 pThr73 [2] (1 μM/24 h treatment), 80 to 100%; in the assay with Rab10 pThr73 [3] (1 μM/4 h treatment) it was 80 to 100%; in the assay with Rab10 pThr73 [3] (1 μM/24 h treatment), 80 to 100%. For the same compound, the EC50 amounted to 55 nM with Rab10 pThr73 [2] and 227 nM in the assay with Rab10 pThr73 [3].
With `CNc1nc(Nc2ccc(C(=O)N3CCN(C[C@H]4CC[C@@H](CSC(C)(C)[C@H](NC(=O)C5(F)CC5)C(=O)N5C[C@H](O)CC5C(=O)N[C@@H](C)c5ccc(-c6scnc6C)cc5)CC4)CC3)cc2OC)ncc1Cl` (stereo partly drawn) [XL02060, (2S,4R)-1-((R)-3-((((1s,4S)-4-((4-(4-((5-chloro-4-(methylamino)pyrimidin-2-yl)amino)-3-methoxybenzoyl)piperazin-1-yl)methyl)cyclohexyl)methyl)thio)-2-(1-fluorocyclopropane-1-carboxamido)-3-methylbutanoyl)-4-hydroxy-N—((S)-1-(4-(4-methylthiazol-5-yl)phenyl)ethyl)pyrrolidine-2-carboxamide], the results for the Dmax on LRRK2^WT and on LRRK2^G2019S were 71% and 78.5%, respectively. Also, the inhibition at 0.033 µM with Rab10 pThr73 [1] (33 nM/4 h treatment) is 0 to 90%; in the assay with Rab10 pThr73 [1] (33 nM/24 h treatment), 30 to 90%; with Rab10 pThr73 [3] (33 nM/4 h treatment), 0 to 70%; in the assay with Rab10 pThr73 [3] (33 nM/24 h treatment) it was 0 to 80%. Further, the inhibition at 1 µM with Rab10 pThr73 [2] (1 μM/4 h treatment) was in the range of 10 to 100%; in the assay on Rab10 pThr73 [2] (1 μM/24 h treatment) it was 80 to 100%; in the assay on Rab10 pThr73 [3] (1 μM/4 h treatment), 80 to 100%; in the assay on Rab10 pThr73 [3] (1 μM/24 h treatment) it was 80 to 100%. In addition, the EC50 was found to be 27 nM with Rab10 pThr73 [2] and 32 nM in the assay on Rab10 pThr73 [3].
